Laboratory results published in patent publication US8592603B2, “Synthesis of 2-(4-aminophenyl) benzothiazole derivatives and use thereof” (Kaohsiung Medical University, priority 2011, dated 2013).

B1: catalase: an effective H2O2 scavenger (Sigma) (protein, UniProt P00432 2-527, looked up)
Catalase: ADNRDPASDQMKHWKEQRAAQKPDVLTTGGGNPVGDKLNSLTVGPRGPLLVQDVVFTDEMAHFDRERIPERVVHAKGAGAFGYFEVTHDITRYSKAKVFEHIGKRTPIAVRFSTVAGESGSADTVRDPRGFAVKFYTEDGNWDLVGNNTPIFFIRDALLFPSFIHSQKRNPQTHLKDPDMVWDFWSLRPESLHQVSFLFSDRGIPDGHRHMNGYGSHTFKLVNANGEAVYCKFHYKTDQGIKNLSVEDAARLAHEDPDYGLRDLFNAIATGNYPSWTLYIQVMTFSEAEIFPFNPFDLTKVWPHGDYPLIPVGKLVLNRNPVNYFAEVEQLAFDPSNMPPGIEPSPDKMLQGRLFAYPDTHRHRLGPNYLQIPVNCPYRARVANYQRDGPMCMMDNQGGAPNYYPNSFSAPEHQPSALEHRTHFSGDVQRFNSANDDNVTQVRTFYLKVLNEEQRKRLCENIAGHLKDAQLFIQKKAVKNFSDVHPEYGSRIQALLDKYNEEKPKNAVHTYVQHGSHLSAREKANL

Key:
[1] = tested on: BCC cells; test: Sub-G1 region analysis (PI, flow cytometry); assay type: cell-based, human; settings: 4 μM for 4 hours, 1 J/cm^2 UVA, 24 h after irradiation
Protocol: BCC cells were treated with compounds at 4 μM and 1 J/cm^2 UVA. Twenty-four hours after irradiation, cells were harvested by trypsinization and centrifugation. Cell pellets were resuspended in 50% cold ethanol and fixed at −20° C. After fixation, cells were washed once with cold PBS and incubated in 0.5 mL of PBS containing 100 μg/mL RNase A for 20 min at 37° C. Cells were harvested by centrifugation at 400 g for 5 min, and 250 μL of PBS containing 50 μg/mL propidium iodide (PI) was added to the pellet. Thirty minutes later, the DNA contents of 10,000 events were measured by FACSscan flow cytometer (Elite ESP, Beckman Coulter, Brea, Calif.). Histograms were analyzed using Windows Multiple Document Interface software (WinMDI). Cells with DNA content less than that in untreated cells in G0/G1 were considered apoptotic. To investigate the effects of compounds 6 on cell cycle progression of BCC cells, the DNA content of cell nuclei was measured by flow cytometric analysis. […] BCC cells were treated with 4 μM agents for 4 hours followed by 1 J/cm^2 UVA irradiation. Twenty-four hours after irradiation, the PI reagent was used. Approximately 10000 cells from each group were analyzed with the FACScan flow cytometer. The apoptotic effects in 2.2% (control), 6.5% (6a), 13.4% (6b), 29.2% (6c), 24.4% (6d), 6.5% (6e), 35.4% (6f), 13.6% (6g), 13.8% (6h), 14.8% (6i) and 6.4% (6j) of sub-G1 DNA peak were obtained (% represented the percentage of cell counts).

[2] = tested on: ERK; test: Western blot analysis of MAPK phosphorylation: ERK; assay type: cell-based, human; settings: BCC cells, pretreatment 30 min before 4 μM 6f-UVA; oligomycin 25 μM, ATP 1×10^−4M (FIG. 6B)
Protocol: (A) After exposure to different concentration of 6f-UVA, cell lysates were collected and immunoblotted with specific antibodies as indicated. For the internal control, the same amounts of protein extract were also probed with antibody against actin. (B) As a control, the expression level of p-ERK was determined in the presence of oligomycin (25 μM) and ATP (1×10^−4M)
Total cell extracts from cultured BCC cells were obtained by lysing the cells in ice-cold RIPA buffer (1×PBS, 1% NP-40, 0.5% sodium deoxycholate, 0.1% SDS) containing 100 μg/mL PMSF, 2 μg/mL aprotinin, 2 μg/mL leupeptin and 100 μg/mL NaF. After centrifugation at 14,000 g for 30 min, protein in the supernatants was quantified by Bradford method (Bio-Rad). Forty micrograms of protein per lane was applied in 10% SDS-poly-acrylamide gel. After electrophoresis, protein was transferred from the gel to polyvinylidene difluoride (PVDF) membrane (Millipore, Bedford, Mass.). The membranes were blocked at room temperature for 1 h in PBS+0.1% Tween 20 (PBS-T) containing 5% skim milk. After being briefly rinsed with PBS-T, the blots were probed with respective primary antibodies at room temperature for 2 h or at 4° C. overnight. Rabbit polyclonal antibodies against JNK (46 kDa), p38 (38 kDa), ERK (42, 44 kDa), and mouse monoclonal antibody against p-JNK, p-p38, p-ERK were purchased from Santa Cruz Biotechnology (Santa Cruz, Calif.). Mouse monoclonal antibody against actin was purchased from Chemicon Int. Inc. (Temecula, Calif.). For the blocking test, 25 μM oligomycin (Sigma, a mitochondria-specific F0F1 ATP synthase inhibitor) or 1×10^−4M ATP (Sigma) was added to the media 30 min before treated with 6f-UVA, respectively. The membrane was incubated with the corresponding horseradish peroxidase-labeled secondary antibody (Santa Cruz Biotechnology) at room temperature for 1 h. […] The relative amounts of specific proteins were quantified by densitometry scanning of X-ray films and analyzed by Eagle Eye Image System (Stratagene, La Jolla, Calif.)

[3] = tested on: BCC cells; test: Determination of intracellular ROS level (DCFH-DA); assay type: cell-based, human; settings: BCC cells treated with 4 μM 6f-UVA, catalase 800 U/mL pretreatment
Protocol: (A) 6f-UVA induced ROS generation in BCC cells. Histogram of fluorescence vs cell count in BCC cells with various concentrations of 6f-UVA and stained with DCFH-DA. As a control, ROS was measured in the presence of catalase, a H2O2 scavenger. (B) The ΔΨmt of BCC cells after exposure to 6f-UVA. Cells were treated with 0, 2, and 4 μM Formula 6f for 4 h followed by 1 J/cm2 UVA irradiation, then stained with DiOC6 and analyzed immediately by flow cytometry as described under Materials and Methods. The number in M1 indicates the percentage of cells with reduced ΔΨmt. Approximately 10000 cells from each group were analyzed by flow cytometry. (C) Relative ATP levels were calculated as the percentage of the 0 μM level. Similar results were obtained in three independent experiments. *p<0.05, ** p<0.01 as compared with the control.
To evaluate intracellular reactive oxygen species (ROS) levels, 2′,7′-dichlorofluorescein diacetate (DCFH-DA, Molecular Probes) fluorescent dye was used to clarify this issue. The nonpolar DCFH-DA is converted to the polar derivative DCFH by esterases when it is taken up by the cell. DCFH is nonfluorescent but is rapidly oxidized to the highly fluorescent DCF by intracellular H2O2 or nitric oxide. […] The fluorescence of the samples was measured with a flow cytometer. The 2′,7′-dichlorofluorescein (DCF) data were recorded using FL-1 photomultiplier.

Molecule	melting point	sub-G1 DNA peak (apoptotic effects, percentage of cell counts) [1]	ERK activation after pretreatment [2]	effect of catalase on increased ROS production [3]
CCc1ccc2nc(-c3ccc(N)cc3)sc2c1 [Formula 6c, 2-(4-Aminophenyl)-6-ethylbenzothiazole]	154 to 156 °C	29.2%	–	–
COc1cccc2nc(-c3ccc(N)cc3)sc12 [Formula 6d, 2-(4-Aminophenyl)-7-methoxybenzothiazole]	142 to 144 °C	24.4%	–	–
COc1ccc2nc(-c3ccc(N)cc3)sc2c1 [Formula 6e, 2-(4-Aminophenyl)-6-methoxybenzothiazole]	–	6.5%	–	–
COc1ccc2nc(-c3ccc(N)c(C)c3)sc2c1 [Formula 6i, 2-(4-Amino-3-methylphenyl)-6-methoxybenzothiazole]	151 to 153 °C	14.8%	–	–
CCc1ccc2nc(-c3ccc(N)c(C)c3)sc2c1 [Formula 6h, 2-(4-Amino-3-methylphenyl)-6-ethylbenzothiazole]	171 to 173 °C	13.8%	–	–
Cc1ccc2nc(-c3ccc(N)cc3)sc2c1 [Formula 6b, 2-(4-Aminophenyl)-6-methylbenzothiazole]	–	13.4%	–	–
Nc1ccc(-c2nc3ccccc3s2)cc1 [Formula 6a, 2-(4-Aminophenyl)benzothiazole]	–	6.5%	–	–
Cc1cc(-c2nc3ccc(C(F)(F)F)cc3s2)ccc1N [Formula 6j, 2-(4-Amino-3-methylphenyl)-6-trifluoromethylbenzothiazole]	152 to 154 °C	6.4%	–	–
Nc1ncnc2c1ncn2[C@@H]1O[C@H](COP(=O)(O)OP(=O)(O)OP(=O)(O)O)[C@@H](O)[C@H]1O [ATP]	–	–	not ATP increased the ERK activation	–
Cc1cc(-c2nc3ccccc3s2)ccc1N [Formula 6g, 2-(4-Amino-3-methylphenyl)benzothiazole]	–	13.6%	–	–
CC[C@H]1/C=C/C=C/C[C@@H](C)[C@H](O)[C@@](C)(O)C(=O)[C@@H](C)[C@H](O)[C@@H](C)C(=O)[C@@H](C)[C@H](O)[C@@H](C)/C=C/C(=O)O[C@@H]2[C@H](C)[C@H](CC1)O[C@]1(CC[C@H](C)[C@H](C[C@@H](C)O)O1)[C@H]2C [oligomycin]	–	–	increased the ERK activation	–
B1	–	–	–	significantly abrogated
